Where two headings read alike, the source gives them in different places.
Experiments:
[1] = test system: SMN2 minigene (full length SMN2 minigene mRNA containing SMN2 exon 7); assay: SMN2 minigene mRNA splicing RT-qPCR assay in cultured cells; type: cell-based, human; settings: Homo sapiens, HEK293-H, read-out: EC1.5x for production of full length SMN2 mRNA
How it was run: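 HEK293H cells stably carrying the SMN2-A minigene treated 24 h at 37° C with compound (DMSO, 200× stock), then lysed. Multiplex RT-qPCR (SMN primers 0.4 μM final; 40 cycles) measures full-length exon 7-containing minigene mRNA, normalized to GAPDH and to vehicle; EC1.5x derived and binned by stars.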

Smn protein = Smn protein assay in cultured cells (SMN HTRF); type: cell-based, human; settings: 48 hours; for maximum fold (Fold) increase of Smn protein: SMA patient fibroblast cells, 7-point concentration data, fold increase relative to vehicle control (SMN HTRF); for EC1.5x (concentration giving 1.5-fold Smn protein increase): SMA Type 1 patient fibroblast cells (GM03813), 7-point concentration curve, SMN HTRF, concentration producing 1.5 times Smn protein vs DMSO vehicle control, read-out: EC1.5x for Smn protein expression
How it was run: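 Lysates in RIPA with protease inhibitors are incubated overnight at room temperature with HTRF anti-SMN antibodies. EC1.5x is derived from fold increase in ΔF over vehicle.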

[2] = HEK293H cells stably transfected with SMN2-A minigene, 24 hours, 7-point concentration curve, 1.5-fold relative to vehicle-treated cells

O=c1oc2cc(N3CCCNCC3)ccc2cc1-c1cn2ccc(C(F)(F)F)cc2n1 [Compound 275, 7-(1,4-diazepan-1-yl)-3-[7-(trifluoromethyl)imidazo[1,2-a]pyridin-2-yl]-2H-chromen-2-one]
EC (1.5-fold) [1, 2]: 0.3 to 1 µM
maximum fold (Fold) increase of Smn protein (Smn protein): * (maximum fold increase of ≤1.2)
melting point: 253 to 262 °C

O=c1oc2cc(N3CCNCC3)ccc2cc1-c1cn2cc(F)cnc2n1 [Compound 502, 3-(6-fluoroimidazo[1,2-a]pyrimidin-2-yl)-7-(piperazin-1-yl)-2H-chromen-2-one]
EC (1.5-fold) [1, 2]: 1 to 3 µM
maximum fold (Fold) increase of Smn protein (Smn protein): * (maximum fold increase of ≤1.2)
melting point: 250 to 261 °C

O=c1oc2cc(N3CC4CCC(C3)N4)ccc2cc1-c1cn2cccc(F)c2n1 [Compound 506, 7-(3,8-diazabicyclo[3.2.1]oct-3-yl)-3-(8-fluoroimidazo[1,2-a]pyridin-2-yl)-2H-chromen-2-one]
EC (1.5-fold) ([1]; 24 h): 0.1 to 0.3 µM
maximum fold (Fold) increase of Smn protein (Smn protein): ** (fold increase between >1.2 and ≤1.35)
melting point: 232 to 235 °C

Cc1cn2cc(-c3cc4ccc(N5CCNCC5)cc4oc3=O)nc2s1 [Compound 96, 3-(2-methylimidazo[2,1-b][1,3]thiazol-6-yl)-7-(piperazin-1-yl)-2H-chromen-2-one]
EC (1.5-fold) [1, 2]: 0.1 to 0.3 µM
EC1.5x (concentration giving 1.5-fold Smn protein increase) (Smn protein): 3000 to 10000 nM
maximum fold (Fold) increase of Smn protein (Smn protein): *** (fold increase between >1.35 and ≤1.5)
melting point: > 310 °C

C[C@@H]1CN(c2cc(F)c3cc(-c4nc5ccccc5[nH]4)c(=O)oc3c2)C[C@H](C)N1 [Compound 371, 3-(1H-benzimidazol-2-yl)-7-[(3R,5S)-3,5-dimethylpiperazin-1-yl]-5-fluoro-2H-chromen-2-one]
EC (1.5-fold) [1, 2]: 0.3 to 1 µM
maximum fold (Fold) increase of Smn protein (Smn protein): * (maximum fold increase of ≤1.2)
melting point: 288 to 294 °C

CC1(C)CN(c2ccc3cc(-c4cn5cc(F)ccc5n4)c(=O)oc3c2)CCN1 [Compound 508, 7-(3,3-dimethylpiperazin-1-yl)-3-(6-fluoroimidazo[1,2-a]pyridin-2-yl)-2H-chromen-2-one]
EC (1.5-fold) [1, 2]: 0.3 to 1 µM
maximum fold (Fold) increase of Smn protein (Smn protein): ** (fold increase between >1.2 and ≤1.35)
melting point: 182 to 185 °C

CN(C)CCN(C)c1ccc2cc(-c3nc4ccccc4s3)c(=O)oc2c1 [Compound 146, 3-(1,3-benzothiazol-2-yl)-7-{[2-(dimethylamino)ethyl](methyl)amino}-2H-chromen-2-one]
EC (1.5-fold) [1, 2]: 0.3 to 1 µM
maximum fold (Fold) increase of Smn protein (Smn protein): * (maximum fold increase of ≤1.2)
melting point: 155 to 157 °C

O=c1oc2cc(N3CCN4CCC3CC4)ccc2cc1-c1cn2cccc(F)c2n1 [Compound 501, 7-(1,4-diazabicyclo[3.2.2]non-4-yl)-3-(8-fluoroimidazo[1,2-a]pyridin-2-yl)-2H-chromen-2-one]
EC (1.5-fold) ([1]; 24 h): 0.1 to 0.3 µM
maximum fold (Fold) increase of Smn protein (Smn protein): ** (fold increase between >1.2 and ≤1.35)
melting point: 175 to 178 °C

CCc1cn2cc(-c3cc4ccc(N5C[C@@H](C)N[C@@H](C)C5)cc4oc3=O)nc2s1 [Cpd 429, 7-[(3R,5S)-3,5-dimethylpiperazin-1-yl]-3-(2-ethylimidazo[2,1-b][1,3]thiazol-6-yl)-2H-chromen-2-one]
EC (1.5-fold) [1, 2]: 0.3 to 1 µM
maximum fold (Fold) increase of Smn protein (Smn protein): * (maximum fold increase of ≤1.2)
melting point: 251 to 253 °C

Cc1nccn2cc(-c3cc4ccc(N5CCCN(C)CC5)cc4oc3=O)cc12 [Compound 556, 7-(4-methyl-1,4-diazepan-1-yl)-3-(1-methylpyrrolo[1,2-a]pyrazin-7-yl)-2H-chromen-2-one]
EC (1.5-fold) [1, 2]: 0.1 to 0.3 µM
EC1.5x (concentration giving 1.5-fold Smn protein increase) (Smn protein): 300 to 1000 nM
maximum fold (Fold) increase of Smn protein (Smn protein): *** (fold increase between >1.35 and ≤1.5)
melting point: 125 to 128 °C

CC(C)N1CCN(c2ccc3cc(-c4nc5ccccc5s4)c(=O)oc3c2)CC1 [Compound 15, 3-(1,3-benzothiazol-2-yl)-7-[4-(propan-2-yl)piperazin-1-yl]-2H-chromen-2-one]
EC (1.5-fold) [1, 2]: 3 to 30 µM
maximum fold (Fold) increase of Smn protein (Smn protein): * (maximum fold increase of ≤1.2)
melting point: 238 to 246 °C

CCN(CC)Cc1ccc2cc(-c3nc4c(Cl)cccc4s3)c(=O)oc2c1 [Compound 58, 3-(4-chloro-1,3-benzothiazol-2-yl)-7-[(diethylamino)methyl]-2H-chromen-2-one]
EC (1.5-fold) [1, 2]: 1 to 3 µM
EC1.5x (concentration giving 1.5-fold Smn protein increase) (Smn protein): 300 to 1000 nM
maximum fold (Fold) increase of Smn protein (Smn protein): **** (fold increase between >1.5 and ≤1.65)
melting point: 147 to 151 °C

CN1CCCN(c2ccc3cc(-c4cn5cc(Cl)ccc5n4)c(=O)oc3c2)CC1 [Compound 92, 3-(6-chloroimidazo[1,2-a]pyridin-2-yl)-7-(4-methyl-1,4-diazepan-1-yl)-2H-chromen-2-one]
EC (1.5-fold) [1, 2]: 1 to 3 µM
maximum fold (Fold) increase of Smn protein (Smn protein): *** (fold increase between >1.35 and ≤1.5)
melting point: 186 to 189 °C

Cc1cn2cc(-c3cc4ccc(O[C@@H]5CCN(C(C)C)C5)cc4oc3=O)nc2c(C)n1 [Compound 891, 3-(6,8-dimethylimidazo[1,2-a]pyrazin-2-yl)-7-{[(3R)-1-(propan-2-yl)pyrrolidin-3-yl]oxy}-2H-chromen-2-one]
EC (1.5-fold) [1, 2]: 0.1 to 0.3 µM
EC1.5x (concentration giving 1.5-fold Smn protein increase) (Smn protein): 300 to 1000 nM
maximum fold (Fold) increase of Smn protein (Smn protein): ***** (fold increase >1.65)
melting point: 176 to 179 °C

Cc1cn2cc(-c3cc4ccc(N5CCN(C(C)C)CC5)cc4oc3=O)nc2c(C)n1 [Compound 792, 3-(6,8-dimethylimidazo[1,2-a]pyrazin-2-yl)-7-[4-(propan-2-yl)piperazin-1-yl]-2H-chromen-2-one]
EC (1.5-fold) [1, 2]: < 0.1 µM
EC1.5x (concentration giving 1.5-fold Smn protein increase) (Smn protein): < 300 nM
maximum fold (Fold) increase of Smn protein (Smn protein): **** (fold increase between >1.5 and ≤1.65)
melting point: 240 to 242 °C

C[C@H]1CN(c2ccc3cc(-c4ccc5c(c4)OCCO5)c(=O)oc3c2)CCN1 [Compound 513, 3-(2,3-dihydro-1,4-benzodioxin-6-yl)-7-[(3S)-3-methylpiperazin-1-yl]-2H-chromen-2-one]
EC (1.5-fold) [1, 2]: 1 to 3 µM
maximum fold (Fold) increase of Smn protein (Smn protein): * (maximum fold increase of ≤1.2)
melting point: 196 to 198 °C

Cc1cn2cc(-c3cc4ccc(N5CCN(CCO)CC5)cc4oc3=O)nc2c(C)n1 [Compound 654, 3-(6,8-dimethylimidazo[1,2-a]pyrazin-2-yl)-7-[4-(2-hydroxyethyl)piperazin-1-yl]-2H-chromen-2-one]
EC (1.5-fold) [1, 2]: < 0.1 µM
EC1.5x (concentration giving 1.5-fold Smn protein increase) (Smn protein): < 300 nM
maximum fold (Fold) increase of Smn protein (Smn protein): **** (fold increase between >1.5 and ≤1.65)
melting point: 231 to 233 °C

C[C@H]1CN(c2ccc3cc(-c4cc5ccccc5o4)c(=O)oc3c2)CCN1 [Compound 603, 3-(1-benzofuran-2-yl)-7-[(3S)-3-methylpiperazin-1-yl]-2H-chromen-2-one]
EC (1.5-fold) [1, 2]: 0.3 to 1 µM
maximum fold (Fold) increase of Smn protein (Smn protein): * (maximum fold increase of ≤1.2)
melting point: 192 to 194 °C

Cc1cn2cc(-c3cc4ccc(CCN(CCO)CCO)cc4oc3=O)nc2c(C)n1 [Compound 875, 7-{2-[bis(2-hydroxyethyl)amino]ethyl}-3-(6,8-dimethylimidazo[1,2-a]pyrazin-2-yl)-2H-chromen-2-one]
EC (1.5-fold) [1, 2]: < 0.1 µM
EC1.5x (concentration giving 1.5-fold Smn protein increase) (Smn protein): < 300 nM
maximum fold (Fold) increase of Smn protein (Smn protein): **** (fold increase between >1.5 and ≤1.65)
melting point: 184 to 188 °C

COc1ccn2cc(-c3cc4ccc(N5CCN(C)CC5)cc4oc3=O)nc2c1 [Compound 435, 3-(7-methoxyimidazo[1,2-a]pyridin-2-yl)-7-(4-methylpiperazin-1-yl)-2H-chromen-2-one]
EC (1.5-fold) [1, 2]: 1 to 3 µM
maximum fold (Fold) increase of Smn protein (Smn protein): * (maximum fold increase of ≤1.2)
melting point: 251 to 259 °C

Cc1cn2cc(-c3cc4ccc(N5CC[C@H](N(C)C)C5)cc4oc3=O)nc2c(C)n1 [Compound 691, 7-[(3S)-3-(dimethylamino)pyrrolidin-1-yl]-3-(6,8-dimethylimidazo[1,2-a]pyrazin-2-yl)-2H-chromen-2-one]
EC (1.5-fold) [1, 2]: < 0.1 µM
EC1.5x (concentration giving 1.5-fold Smn protein increase) (Smn protein): < 300 nM
maximum fold (Fold) increase of Smn protein (Smn protein): **** (fold increase between >1.5 and ≤1.65)
melting point: 244 to 246 °C

Cc1cn2cc(-c3cc4ccc(N5C[C@@H](C)N[C@@H](C)C5)cc4oc3=O)cc2c(C)n1 [Compound 645, 7-[(3R,5S)-3,5-dimethylpiperazin-1-yl]-3-(1,3-dimethylpyrrolo[1,2-a]pyrazin-7-yl)-2H-chromen-2-one]
EC (1.5-fold) [1, 2]: < 0.1 µM
EC1.5x (concentration giving 1.5-fold Smn protein increase) (Smn protein): < 300 nM
maximum fold (Fold) increase of Smn protein (Smn protein): ***** (fold increase >1.65)
melting point: 170 to 173 °C

C[C@@H]1CN(c2ccc3cc(-c4cn5ccc(C(F)(F)F)cc5n4)c(=O)oc3c2)C[C@H](C)N1C [Compound 168, 3-[7-(trifluoromethyl)imidazo[1,2-a]pyridin-2-yl]-7-[(3R,5S)-3,4,5-trimethylpiperazin-1-yl]-2H-chromen-2-one]
EC (1.5-fold) [1, 2]: 1 to 3 µM
maximum fold (Fold) increase of Smn protein (Smn protein): * (maximum fold increase of ≤1.2)
melting point: 267 to 275 °C

Reference: patent USRE47689E1, “Compounds for treating spinal muscular atrophy” (PTC Therapeutics, Inc., priority 2011, dated 2019)
